According to ChEMBL document CHEMBL1287765, “Discovery of novel quinolinone adenosine A2B antagonists” (Bioorg Med Chem Lett, 2010):

Assay: Aqueous solubility of compound
Assay type: physicochemical
Conditions: buffer

Question: Which solubility does the source give for `COc1ccc2[nH]c(=O)c(S(C)(=O)=O)c(CCc3ccccc3)c2c1` here?
Answer: Its solubility is “Insoluble”.

Question: For `CS(=O)(=O)c1c(CCc2ccccc2)c2cc(OCC(=O)Nc3ccccc3)ccc2[nH]c1=O`, which solubility is on record?
Answer: Its solubility is “Insoluble”.

Question: Which solubility does the source give for `CS(=O)(=O)c1c(CCc2ccccc2)c2cc(OCC(=O)NCC3CC3)ccc2[nH]c1=O` here?
Answer: The solubility was “Insoluble”.

Question: Which solubility does the source give for `CN(Cc1ccc(Cl)c(Cl)c1)C(=O)COc1ccc2[nH]c(=O)c(S(C)(=O)=O)c(CCc3ccccc3)c2c1` here?
Answer: The solubility was “Insoluble”.

Question: With `CS(=O)(=O)c1c(CCc2ccccc2)c2cc(OCC(=O)NCc3ccc(Cl)c(Cl)c3)ccc2[nH]c1=O` as the compound, how does the solubility read?
Answer: The solubility was “Insoluble”.

Question: Which solubility does the source give for `Cn1c(=O)c(S(C)(=O)=O)c(CCc2ccccc2)c2cc(OCC(=O)NCc3ccc(Cl)c(Cl)c3)ccc21` here?
Answer: Its solubility is “Insoluble”.

Question: For `COCCCNC(=O)COc1ccc2[nH]c(=O)c(S(C)(=O)=O)c(CCc3ccccc3)c2c1`, which solubility is on record?
Answer: Its solubility is “Insoluble”.

Question: Which solubility does the source give for `CS(=O)(=O)c1c(CCc2ccccc2)c2cc(OCC(=O)NCc3ccccc3)ccc2[nH]c1=O` here?
Answer: Its solubility is “Insoluble”.
